The record followed here is US9725465B2, “Biaryl acetamide compounds and methods of use thereof” (Ambit Biosciences Corporation, priority 2013, dated 2017).

pKd: −log10 of the molar value. Some results are limits rather than exact numbers.

One test addresses FLT3 kinase (Homo sapiens (Human), UniProt P36888). Kind of test: Competition binding assay (Kd), FLT3.
The target of another test is KIT kinase (Homo sapiens (Human), UniProt P10721). The test can be described thus: Competition binding assay (Kd), KIT. The method, then:
In certain embodiments, competition binding assays were performed as described in Fabian et al., Nature Biotechnology 2005, 23, 329-336.
Competition binding assays used herein were developed, validated and performed as described in Fabian et al., Nature Biotechnology 2005, 23, 329-336. Kinases were produced as fusions to T7 phage (See, Fabian et al. or WO04/015142) or alternatively, the kinases were expressed in HEK-293 cells and subsequently tagged with DNA for PCR detection (See, WO08/005,310). […] The liganded beads were blocked with excess biotin and washed with blocking buffer (SeaBlock (Pierce), 1% BSA, 0.05% Tween 20, 1 mM DTT) to remove unbound ligand and to reduce non-specific binding. […] Test compounds were prepared as 100× stocks in DMSO and diluted into the aqueous environment. Kds were determined using an eleven point threefold serial dilutions. DMSO or control compounds were was added to control assays lacking a test compound. […] The kinase concentration in the eluates was measured by quantitative PCR. […]

Chain of FLT3 kinase (P36888 27-993): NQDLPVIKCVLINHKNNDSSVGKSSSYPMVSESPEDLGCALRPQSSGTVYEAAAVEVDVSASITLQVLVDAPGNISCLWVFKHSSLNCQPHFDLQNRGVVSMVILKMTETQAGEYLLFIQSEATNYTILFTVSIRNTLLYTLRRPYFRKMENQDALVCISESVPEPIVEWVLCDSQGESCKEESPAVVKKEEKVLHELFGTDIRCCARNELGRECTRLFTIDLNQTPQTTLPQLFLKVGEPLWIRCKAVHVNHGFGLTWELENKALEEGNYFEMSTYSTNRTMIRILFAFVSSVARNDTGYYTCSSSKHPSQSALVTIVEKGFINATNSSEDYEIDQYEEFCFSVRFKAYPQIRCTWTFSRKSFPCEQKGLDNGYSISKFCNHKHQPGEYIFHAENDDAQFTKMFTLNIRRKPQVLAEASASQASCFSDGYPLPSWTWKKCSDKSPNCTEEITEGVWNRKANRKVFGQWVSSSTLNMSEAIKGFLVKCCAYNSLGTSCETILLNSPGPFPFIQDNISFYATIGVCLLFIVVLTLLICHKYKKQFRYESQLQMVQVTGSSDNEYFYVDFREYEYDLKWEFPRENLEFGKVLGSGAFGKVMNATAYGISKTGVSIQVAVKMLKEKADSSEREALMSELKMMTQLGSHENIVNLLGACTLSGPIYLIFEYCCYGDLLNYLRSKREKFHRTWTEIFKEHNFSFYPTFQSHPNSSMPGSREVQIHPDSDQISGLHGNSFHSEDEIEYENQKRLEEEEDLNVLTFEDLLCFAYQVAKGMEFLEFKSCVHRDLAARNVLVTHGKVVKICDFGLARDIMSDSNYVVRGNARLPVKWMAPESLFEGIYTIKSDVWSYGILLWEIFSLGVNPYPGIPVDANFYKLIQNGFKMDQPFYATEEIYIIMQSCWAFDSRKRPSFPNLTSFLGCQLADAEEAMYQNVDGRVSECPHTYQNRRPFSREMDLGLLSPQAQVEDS
Chain of KIT kinase (P10721 26-976): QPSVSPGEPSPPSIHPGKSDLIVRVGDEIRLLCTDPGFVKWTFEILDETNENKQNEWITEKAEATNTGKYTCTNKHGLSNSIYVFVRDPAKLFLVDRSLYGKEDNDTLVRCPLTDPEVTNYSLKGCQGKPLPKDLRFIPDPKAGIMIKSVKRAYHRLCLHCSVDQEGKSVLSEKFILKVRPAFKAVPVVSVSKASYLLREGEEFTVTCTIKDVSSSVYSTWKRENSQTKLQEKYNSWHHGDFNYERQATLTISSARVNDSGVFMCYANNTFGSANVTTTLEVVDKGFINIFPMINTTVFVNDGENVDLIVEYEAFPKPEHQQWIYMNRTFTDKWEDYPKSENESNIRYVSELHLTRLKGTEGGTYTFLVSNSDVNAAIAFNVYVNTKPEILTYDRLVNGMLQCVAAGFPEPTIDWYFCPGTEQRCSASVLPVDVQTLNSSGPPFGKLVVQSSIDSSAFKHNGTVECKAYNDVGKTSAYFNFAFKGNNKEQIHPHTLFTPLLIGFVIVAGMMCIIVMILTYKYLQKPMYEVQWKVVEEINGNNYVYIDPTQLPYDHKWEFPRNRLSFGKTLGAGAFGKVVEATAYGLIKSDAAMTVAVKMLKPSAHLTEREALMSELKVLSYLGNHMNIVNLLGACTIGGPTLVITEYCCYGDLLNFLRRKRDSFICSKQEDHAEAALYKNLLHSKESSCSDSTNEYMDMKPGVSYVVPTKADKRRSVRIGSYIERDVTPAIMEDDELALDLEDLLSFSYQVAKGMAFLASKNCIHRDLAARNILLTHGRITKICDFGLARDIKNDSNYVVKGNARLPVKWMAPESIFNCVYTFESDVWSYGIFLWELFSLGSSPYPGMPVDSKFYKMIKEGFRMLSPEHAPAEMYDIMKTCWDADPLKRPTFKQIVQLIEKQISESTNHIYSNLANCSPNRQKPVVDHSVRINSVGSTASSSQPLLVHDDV

The pKd is −log10 of the Kd, conventionally taken in molar units. Read a high pKd as a low Kd. For the compound `COc1cc2nc(-c3ccc(CC(=O)Nc4cc(C5(C(F)(F)F)CC5)on4)c(F)c3)cnc2cc1OCCN1CCCOCC1` [Example 240, 2-[2-fluoro-4-[7-methoxy-6-[2-(1,4-oxazepan-4-yl)ethoxy]quinoxalin-2-yl]phenyl]-N-[5-[1-(trifluoromethyl)cyclo-propyl]isoxazol-3-yl]acetamide], the pKd at FLT3 kinase (competition binding) and at KIT kinase (competition binding) was above 8.30 in each case.

In the case of `O=C(Cc1ccc(-c2cnc3cccnc3c2)cc1)Nc1cc(C2(C(F)(F)F)CC2)on1` [Example 11, 2-(4-(1,5-naphthyridin-3-yl)phenyl)-N-(5-(1-(trifluoromethyl)cyclopropyl)isoxazol-3-yl)acetamide], the pKd on FLT3 kinase (competition binding assay) and at KIT kinase (competition binding assay) was above 8.30 each time.

Turning to `COc1cc2ncc(-c3ccc(CC(=O)Nc4cc(C5(C(F)(F)F)CC5)n[nH]4)c(F)c3)nc2cc1OC` [Example 180, 2-[4-(6,7-dimethoxyquinoxalin-2-yl)-2-fluoro-phenyl]-N-[3-[1-(trifluoromethyl)cyclo-propyl]-1H-pyrazol-5-yl]acetamide], the pKd on FLT3 kinase (competition binding assay) and at KIT kinase (competition binding assay) was above 8.30 each time.

For `COc1cc2nc(-c3ccc(CC(=O)Nc4cc(C5(C(F)(F)F)CC5)on4)c(F)c3)cnc2cc1OCCN1CCOC[C@H]1C` [Example 247, 2-[2-fluoro-4-[7-methoxy-6-[2-[(3R)-3-methylmorpholin-4-yl]ethoxy]quinoxalin-2-yl]phenyl]-N-[5-[1-(trifluoromethyl)cyclo-propyl]isoxazol-3-yl]acetamide], the pKd on FLT3 kinase (competition binding) and at KIT kinase (competition binding) was above 8.30 in each case.

On to `COc1cc2nc(-c3ccc(CC(=O)Nc4cc(C5(C(F)(F)F)CC5)on4)c(F)c3)cnc2cc1OCC(O)CO` (stereo not drawn) [Example 238, 2-[4-[6-(2,3-dihydroxypropoxy)-7-methoxy-quinoxalin-2-yl]-2-fluoro-phenyl]-N-[5-[1-(trifluoromethyl)cyclo-propyl]isoxazol-3-yl]acetamide], for which the pKd on FLT3 kinase (competition binding) and at KIT kinase (competition binding) was above 8.30 throughout.

In the case of `COc1cc2ncc(-c3ccc(CC(=O)Nc4cc(C(C)(C)C(F)(F)F)on4)c(F)c3)cc2cc1OCCNC(C)=O` [Example 205, 2-[4-[6-(2-acetamidoethoxy)-7-methoxy-3-quinolyl]-2-fluoro-phenyl]-N-[5-(2,2,2-trifluoro-1,1-dimethyl-ethyl)isoxazol-3-yl]acetamide], the pKd on FLT3 kinase (competition binding) and at KIT kinase (competition binding) was above 8.30 each time.

As to `Cn1ccc2ncc(-c3ccc(CC(=O)Nc4cc(C5(C(F)(F)F)CC5)on4)cc3)nc21` [Example 9, 2-(4-(5-methyl-5H-pyrrolo[2,3-b]pyrazin-3-yl)phenyl)-N-(5-(1-(trifluoromethyl)cyclopropyl)isoxazol-3-yl)acetamide], the pKd on FLT3 kinase (competition binding assay) and at KIT kinase (competition binding assay) was above 8.30 each time.

Regarding `COc1cc2nc(-c3ccc(CC(=O)Nc4cc(C(C)(C)C(F)(F)F)n[nH]4)c(F)c3)cnc2cc1OCCN1CCOCC1` [Example 235, 2-[2-fluoro-4-[7-methoxy-6-(2-morpholino-ethoxy)quinoxalin-2-yl]phenyl]-N-[3-(2,2,2-trifluoro-1,1-dimethyl-ethyl)-1H-pyrazol-5-yl]acetamide], the pKd at FLT3 kinase (competition binding) and at KIT kinase (competition binding) was above 8.30 throughout.

As to `O=C(Cc1ccc(-c2cnc3ccncc3c2)cc1)Nc1cc(C2(C(F)(F)F)CC2)on1` [Example 12, 2-(4-(1,6-naphthyridin-3-yl)phenyl)-N-(5-(1-(trifluoromethyl)cyclopropyl)isoxazol-3-yl)acetamide], the pKd on FLT3 kinase (competition binding assay) and at KIT kinase (competition binding assay) was above 8.30 in each case.

Turning to `COc1cc2ncc(-c3ccc(CC(=O)Nc4cc(C5(C(F)(F)F)CC5)on4)c(F)c3)cc2cc1OCCN` [Example 192, 2-[4-[6-(2-aminoethoxy)-7-methoxy-3-quinolyl]-2-fluoro-phenyl]-N-[5-[1-(trifluoromethyl)cyclo-propyl]isoxazol-3-yl]acetamide], the pKd on FLT3 kinase (competition binding) and at KIT kinase (competition binding) was above 8.30 in each case.

In the case of `COc1cc2nc(-c3ccc(CC(=O)Nc4cc(C5(C(F)(F)F)CC5)on4)c(F)c3)cnc2cc1OCCN1CCN(C)CC1` [Example 81, 2-(2-fluoro-4-(7-methoxy-6-(2-(4-methylpiperazin-1-yl)ethoxy)quinoxalin-2-yl)phenyl)-N-(5-(1-(trifluoromethyl)cyclopropyl)isoxazol-3-yl)acetamide], the pKd at FLT3 kinase (competition binding assay) and on KIT kinase (competition binding assay) was above 8.30 in each case.

For `COc1cc2ncc(-c3ccc(CC(=O)Nc4cc(C(C)(C)C(F)(F)F)on4)c(F)c3)cc2cc1OCCN` [Example 204, 2-[4-[6-(2-aminoethoxy)-7-methoxy-3-quinolyl]-2-fluoro-phenyl]-N-[5-(2,2,2-trifluoro-1,1-dimethyl-ethyl)isoxazol-3-yl]acetamide], the pKd on FLT3 kinase (competition binding) and on KIT kinase (competition binding) was above 8.30 each time.

Consider `COc1cc2ncc(-c3ccc(CC(=O)Nc4cc(C(C)(C)C(F)(F)F)n[nH]4)c(F)c3)nc2cc1OC` [Example 182, 2-[4-(6,7-dimethoxyquinoxalin-2-yl)-2-fluoro-phenyl]-N-[3-(2,2,2-trifluoro-1,1-dimethyl-ethyl)-1H-pyrazol-5-yl]acetamide], for which the pKd on FLT3 kinase (competition binding assay) and at KIT kinase (competition binding assay) was above 8.30 throughout.

Consider `COc1cc2ncc(-c3ccc(CC(=O)Nc4cc(C(C)(C)C(F)(F)F)on4)c(F)c3)cc2cc1OCCN1CCC(O)CC1` [Example 206, 2-[2-fluoro-4-[6-[2-(4-hydroxy-1-piperidyl)ethoxy]-7-methoxy-3-quinolyl]phenyl]-N-[5-(2,2,2-trifluoro-1,1-dimethyl-ethyl)isoxazol-3-yl]acetamide], for which the pKd at FLT3 kinase (competition binding) and at KIT kinase (competition binding) was above 8.30 each time.

As to `COc1cc2ncc(-c3ccc(CC(=O)Nc4cc(C5(C(F)(F)F)CC5)on4)c(F)c3)cc2cc1OCCO` [Example 179, 2-[2-fluoro-4-[6-(2-hydroxyethoxy)-7-methoxy-3-quinolyl]phenyl]-N-[5-[1-(trifluoromethyl)cyclo-propyl]isoxazol-3-yl]acetamide], the pKd at FLT3 kinase (competition binding assay) and at KIT kinase (competition binding assay) was above 8.30 each time.

As to `COCCOc1cc2cc(-c3ccc(CC(=O)Nc4cc(C5(C(F)(F)F)CC5)on4)c(F)c3)cnc2cc1OC` [Example 188, 2-[2-fluoro-4-[7-methoxy-6-(2-methoxyethoxy)-3-quinolyl]phenyl]-N-[5-[1-(trifluoromethyl)cyclo-propyl]isoxazol-3-yl]acetamide], the negative logarithm of the Kd (pKd) on FLT3 kinase (competition binding) and on KIT kinase (competition binding) was above 8.30 each time.

Take `COc1cc2nc(-c3ccc(CC(=O)Nc4cc(C5(C(F)(F)F)CC5)nn4C)c(F)c3)cnc2cc1OCCN1CCOCC1` [Example 228, 2-[2-fluoro-4-[7-methoxy-6-(2-morpholino-ethoxy)quinoxalin-2-yl]phenyl]-N-[2-methyl-5-[1-(trifluoromethyl)cyclo-propyl]pyrazol-3-yl]acetamide]: the pKd at FLT3 kinase (competition binding) and at KIT kinase (competition binding) was above 8.30 each time.

Take `COc1cc2ncc(-c3ccc(CC(=O)Nc4cc(C5(C(F)(F)F)CC5)nn4C)c(F)c3)nc2cc1OC` [Example 172, 2-[4-(6,7-dimethoxyquinoxalin-2-yl)-2-fluoro-phenyl]-N-[2-methyl-5-[1-(trifluoro-methyl)cyclopropyl]pyrazol-3-yl]acetamide]: the pKd on FLT3 kinase (competition binding assay) and on KIT kinase (competition binding assay) was above 8.30 throughout.

As for `COc1cc2nc(-c3ccc(CC(=O)Nc4cc(C5(C(F)(F)F)CC5)on4)cc3)cnc2cc1OCCN1CCOCC1` [Example 231, 2-[4-[7-methoxy-6-(2-morpholinoethoxy)quinoxalin-2-yl]phenyl]-N-[5-[1-(trifluoromethyl)cyclo-propyl]isoxazol-3-yl]acetamide], the pKd on FLT3 kinase (competition binding) and on KIT kinase (competition binding) was above 8.30 each time.

On to `COc1cc2ncc(-c3ccc(CC(=O)Nc4cc(C5(C(F)(F)F)CC5)on4)c(F)c3)nc2cc1OCCN1CCOCC1` [Example 234, 2-[2-fluoro-4-[6-methoxy-7-(2-morpholino-ethoxy)quinoxalin-2-yl]phenyl]-N-[5-[1-(trifluoro-methyl)cyclopropyl]isoxazol-3-yl]acetamide], for which the pKd at FLT3 kinase (competition binding) and at KIT kinase (competition binding) was above 8.30 each time.

Take `COc1cc2ncc(-c3cnc(CC(=O)Nc4cc(C(C)(C)C(F)(F)F)on4)c(F)c3)nc2cc1OC` [Example 229, 2-[5-(6,7-dimethoxyquinoxalin-2-yl)-3-fluoro-2-pyridyl]-N-[5-(2,2,2-trifluoro-1,1-dimethyl-ethyl)isoxazol-3-yl]acetamide]: the pKd at FLT3 kinase (competition binding) and on KIT kinase (competition binding) was above 8.30 in each case.

In the case of `COc1cc2ncc(-c3ccc(CC(=O)Nc4cc(C(C)(C)C(F)(F)F)on4)c(F)c3)nc2cc1OCCN1CCOCC1` [Example 187, 2-[2-fluoro-4-[6-methoxy-7-(2-morpholino-ethoxy)quinoxalin-2-yl]phenyl]-N-[5-(2,2,2-trifluoro-1,1-dimethyl-ethyl)isoxazol-3-yl]acetamide], the pKd at FLT3 kinase (competition binding) and at KIT kinase (competition binding) was above 8.30 throughout.

For `O=C(Cc1ccc(-c2cnc3ccsc3c2)cc1)Nc1cc(C2(C(F)(F)F)CC2)on1` [Example 10, 2-(4-(thieno[3,2-b]pyridin-6-yl)phenyl)-N-(5-(1-(trifluoromethyl)cyclopropyl)isoxazol-3-yl)acetamide], the pKd on FLT3 kinase (competition binding assay) and at KIT kinase (competition binding assay) was above 8.30 in each case.

Regarding `COc1cc2cc(-c3ccc(CC(=O)Nc4cc(C5(C(F)(F)F)CC5)on4)c(F)c3)cnc2cc1OCCN1CCOCC1` [Example 232, 2-[2-fluoro-4-[6-methoxy-7-(2-morpholinoethoxy)-3-quinolyl]phenyl]-N-[5-[1-(trifluoromethyl)cyclo-propyl]isoxazol-3-yl]acetamide], the pKd on FLT3 kinase (competition binding) and on KIT kinase (competition binding) was above 8.30 throughout.
